# Measurements as given in US8497249B1, “Fungicidal properties of three saponins from Capsicum frutescens” (The United States of America, as represented by the …, priority 2008, dated 2013).
# Key:
# Fusarium oxysporum = assay: Conidial viability bioassay (30 min incubation, colony enumeration); assay type: cell-based; design: key: —: No viability reduction observed
# Experimental: (§1) Bioassays were performed as described earlier (De Lucca et al. 2002, 2006b, supra). The test fungi (Aspergillus flavus, A. niger, A. fumigatus, Fusarium oxysporum, F. solani, and F. verticilioides (formerly F. moniliforme) were grown on potato dextrose agar (Difco, Detroit, Mich.) slants for seven days (30° C.). When needed, conidia were suspended in 1% potato dextrose broth (Difco, Detroit, Mich.), pH 5.2 (PDB). Using a hemocytometer, stock suspension concentrations were determined and final (working) concentrations of 3×10^4 conidia/ml were prepared. Following preparation of the conidia, a sample of nongerminated conidia was immediately used in the bioassay to determine the effect of the saponins on nongerminated conidia. An additional conidial sample for each fungus was incubated for 8 hr at 30° C. These conidia were used in bioassays to determine activity of the saponins against germinating conidia.
# (§2) Individual bioassays consisted of conidia (25 μl), PDB, and the appropriate amount of a mixture of CAY-1, 1081 and 919. The CAY-1 control (CAY-1 alone) bioassays measuring the fungicidal response against the same fungi were performed in a similar manner. Final test volumes were 250 μl. […]
# (§3) Statistical analyses were performed on the data using SigmaStat 3.1 (Systat, Point Richmond, Calif.). Significance (p<0.001) was determined between viability control and test saponin data.
# [1] = tested on: F. verticilioides (formerly F. moniliforme); assay: as above; assay type: cell-based, Fusarium verticilioides; design: key to Lowest concentration showing significant (p < 0.001) viability reduction: CAY-1 Control / Total Weight of mixture: —: No viability reduction observed; settings: for Lowest concentration showing significant (p < 0.001) viability reduction: CAY-1 Control / Total Weight of mixture: 30 min incubation
# Experimental: as §1
# (§4) Individual bioassays consisted of conidia (25 μl), PDB, and the appropriate amount of a mixture of CAY-1, 1081 and 919. The CAY-1 control (CAY-1 alone) bioassays measuring the fungicidal response against the same fungi were performed in a similar manner. Final test volumes were 250 μl. Controls consisted of conidia and PDB medium.
# (§5) After a 30 min incubation period (30° C.), aliquots (50 μl) of each sample were spread on each of four potato dextrose agar plates. The plates were incubated for 48 hours at 30° C., followed by colony enumeration. Three separate runs per conidial type and fungus were performed (n=12).
# as §3
# A. niger = assay: as above; assay type: cell-based, Aspergillus niger; design: key to Lowest concentration showing significant (p < 0.001) viability reduction: CAY-1 Control / Total Weight of mixture: —: No viability reduction observed; settings: for Lowest concentration showing significant (p < 0.001) viability reduction: CAY-1 Control / Total Weight of mixture: 30 min incubation; for Reduction of conidial viability / fungicidal activity (in words): FIG. 2C
# Experimental: as §1, §4, §5, §3
# Fusarium species = assay: Conidial viability bioassays, Fusarium species; assay type: cell-based; settings: nongerminated conidia of the tested Fusarium isolates
# Experimental: as §1, §4
# After a 30 min incubation period (30° C.), aliquots (50 μl) of each sample were spread on each of four potato dextrose agar plates. […]
# [2] = tested on: Aspergillus flavus, A. fumigatus and A. niger; settings: in vitro; De Lucca et al. 2006a; cited from earlier work
# [3] = tested on: germinating conidia of A. flavus; settings: within five minutes of the initiation of incubation; De Lucca et al., 2002; cited from earlier work
# Aspergillus flavus = assay: Conidial viability bioassay (30 min incubation, colony enumeration); assay type: cell-based; design: key to Lowest concentration showing significant (p < 0.001) viability reduction: CAY-1 Control / Total Weight of mixture: —: No viability reduction observed; settings: for Lowest concentration showing significant (p < 0.001) viability reduction: CAY-1 Control / Total Weight of mixture: 30 min incubation; for Reduction of conidial viability / fungicidal activity (in words): FIG. 2A
# Experimental: as §1, §4, §5, §3
# A. fumigatus = assay: as above; assay type: cell-based, Aspergillus fumigatus; design: key: —: No viability reduction observed
# Experimental: as §1, §2, §3
# [4] = tested on: fungi of agricultural and medical importance; settings: pure saponin; De Lucca et al. 2002, 2006b and others; cited from earlier work
# [5] = tested on: germinating conidia of A. flavus; assay: Time of fungicidal activity (time course study); assay type: cell-based, Aspergillus flavus; settings: after 5 minutes of incubation; total weight 12.67 μg/ml (4:3:3: 12.64 μg/ml)
# Experimental: as §1, with “Detroit, Mich.) […] for seven” for “Detroit, Mich.) slants for seven”, “germinating conidia. Individual bioassays consisted of conidia (25 μl), PDB, and the appropriate amount of a mixture of CAY-1, 1081 and 919. The CAY-1 control (CAY-1 alone) bioassays measuring the fungicidal response against the same fungi were performed in a similar manner. Final test volumes were 250 μl. […] Time of fungicidal activity for the saponin mixtures was determined by using the germinating conidia of A. flavus. […] Significance (p<0.001) was determined between viability control and test saponin data.” for “germinating conidia.”
# F. solani = assay: Conidial viability bioassay (30 min incubation, colony enumeration); assay type: cell-based, Fusarium solani; design: key to Lowest concentration showing significant (p < 0.001) viability reduction: CAY-1 Control / Total Weight of mixture: —: No viability reduction observed; settings: for Lowest concentration showing significant (p < 0.001) viability reduction: CAY-1 Control / Total Weight of mixture: 30 min incubation; for Reduction of conidial viability / fungicidal activity (in words): FIG. 2F
# Experimental: as §1, §4, §5, §3
# [6] = germinating conidia, listed as CAY-1 control
# [7] = germinating conidia, listed as CAY-1 controls
smiles,measurement,setting,value
CC1CCC2(OC1)OC1CC3C4CCC5CC(OC6OC(CO)C(OC7OC(CO)C(O)C(OC8OC(CO)C(O)C(OC9OC(CO)C(O)C(O)C9O)C8O)C7OC7OC(CO)C(O)C(O)C7O)C(O)C6O)C(O)CC5(C)C4CCC3(C)C1C2C (stereo not shown) [CAY-1],Lowest concentration showing significant (p < 0.001) viability reduction: CAY-1 Control / Total Weight of mixture,Fusarium oxysporum; germinating conidia,—
same,Lowest concentration showing significant (p < 0.001) viability reduction: CAY-1 Control / Total Weight of mixture,Fusarium oxysporum; nongerminated conidia,—
same,Lowest concentration showing significant (p < 0.001) viability reduction: CAY-1 Control / Total Weight of mixture,[1]; germinating conidia,—
same,Reduction of conidial viability / fungicidal activity (in words),"[1]; germinating conidia, FIG. 2D",inactive
same,Lowest concentration showing significant (p < 0.001) viability reduction: CAY-1 Control / Total Weight of mixture,[1]; nongerminated conidia,—
same,Lowest concentration showing significant (p < 0.001) viability reduction: CAY-1 Control / Total Weight of mixture,A. niger; germinating conidia,6.62 µg/mL
same,Reduction of conidial viability / fungicidal activity (in words),A. niger; germinating conidia,No major differences
same,Reduction of conidial viability / fungicidal activity (in words),A. niger; [6],significantly (p<0.001) lower viability counts
same,Reduction of conidial viability / fungicidal activity (in words),A. niger; [7],significant viability loss
same,Lowest concentration showing significant (p < 0.001) viability reduction: CAY-1 Control / Total Weight of mixture,A. niger; nongerminated conidia,—
same,Reduction of conidial viability (in words),Fusarium species,not reduced
same,Interaction with Amphotericin B and intraconazole,[2],additive synergy
same,Dose producing significant lethality,[3],12.4 µg/mL
same,Lowest concentration showing significant (p < 0.001) viability reduction: CAY-1 Control / Total Weight of mixture,Aspergillus flavus; germinating conidia,4.97 µg/mL
same,Reduction of conidial viability / fungicidal activity (in words),Aspergillus flavus; [6],significantly (p<0.001) lower viability counts
same,Reduction of conidial viability / fungicidal activity (in words),Aspergillus flavus; [7],significant viability loss
same,Lowest concentration showing significant (p < 0.001) viability reduction: CAY-1 Control / Total Weight of mixture,Aspergillus flavus; nongerminated conidia,—^#
same,Lowest concentration showing significant (p < 0.001) viability reduction: CAY-1 Control / Total Weight of mixture,A. fumigatus; germinating conidia,—
same,Lowest concentration showing significant (p < 0.001) viability reduction: CAY-1 Control / Total Weight of mixture,A. fumigatus; nongerminated conidia,—
same,Antifungal properties (in words),[4],potent fungicidal properties
same,Activity (in words),[5],inactive
same,Lowest concentration showing significant (p < 0.001) viability reduction: CAY-1 Control / Total Weight of mixture,F. solani; germinating conidia,12.43 µg/mL
same,Reduction of conidial viability / fungicidal activity (in words),F. solani; germinating conidia,significantly fungicidal
same,Reduction of conidial viability / fungicidal activity (in words),F. solani; [7],significant viability loss
same,Lowest concentration showing significant (p < 0.001) viability reduction: CAY-1 Control / Total Weight of mixture,F. solani; nongerminated conidia,—
